Measurements: patent US12565467B2, “Compounds, compositions, and methods for the treatment of inflammatory, degenerative, and neurodegenerative diseases” (Board of Supervisors of Louisiana State University and …, priority 2015, dated 2026)

Assays:
[1] = tested on: human retinal pigment epithelial (RPE) cells deficient in 15-LOX-D1; test: Oxidative stress (OS) induced apoptosis / cell death in 15-LOX-1-deficient human RPE cells; assay type: cell-based
From the text: (§1) FIG. 4. (A) Cytoprotective effects of NPD1 like compounds on OS induced apoptosis. The results shown in this figure compare the cytoprotective capacities of long chain polyunsaturated fatty acids (VLC-PUFA), elovanoids ELV1 and ELV2, and neuroprotectin D1 (NPD1) in human retinal pigment epithelial (RPE) cells deficient in 15-LOX-D1 by measuring the protection of cell deaths induced by oxidative stress (OS) by these compounds. […] (B) Elovanoid precursors protect human retinal pigment epithelial cells deficient in 15-LOX-1, unlike DHA, from oxidative stress conditions.
FIG. 5. (A) Effect of PD146176 on VLC-PUFA-inhibited apoptosis induced by OS in ARPE-19 cells. […] It is evident that 32:6 and 34:6 LCAF were able to induce a substantial amount (55 and 48% respectively) of neuroprotection compared to PD 146176 (22%) when the stressed cells were treated with 5 μm of 15-LOX-D1 inhibitor. It can be concluded that since PD146176 is the inhibitor of 15-lipooxygenase enzyme, it might be protecting the stressed RPE cells by accumulating neuroprotective agents inside the cells. (B) Comparison of cytoprotective capacities of NPD1, C32:6 and C34:6 VLC-PUFA on oxidative stress-induced apoptosis in 15-LOX-1 cells. Shown here is the comparison of neuroprotection in a 15-LOX-1-deficient cell line under oxidative stress with 32:6 and 34:6 VLC-PUFA along with NPD1. 32:6 and 34:6 LCAF were able to induce neuroprotection (45% and 40% respectively), as compared to oxidative stress (90%) under this condition. (C) Concentration dependent cytoprotection by C32:6 and C34:6 VLC-PUFA in oxidative-stress induced ARPE-19 cells. A concentration (50-500 nM) kinetic of cytoprotection induced by LCAF 32:6 and 34:6 in RPE cell culture under OS was shown here. […] We decided to use 250 nM concentrations of 32:6 and 34:6 LCAF in subsequent experiments. (D) Selected images of alive and dead cells from this study (control, OS, treatment with C32:6).
as §1, with “Evidence of cytoprotection by 32.6 and 34.6 VLC-PUFA in oxidative-stress induced ARPE-19 cells as detailed in (FIG. 4): (A) Cytoprotective” for “FIG. 4. (A) Cytoprotective”, “capacities of very long chain” for “capacities of long chain”
FIG. 5—(A) Effect of PD146176 on VLC-PUFA inhibited apoptosis induced by OS in ARPE-19 cells. […] It is evident that 32:6 and 34:6 LCAF were able to induce a substantial amount (55 and 48% respectively) of neuroprotection compared to PD 146176 (22%) when the stressed cells were treated with 5 μm of 15-LOX-D1 inhibitor. It can be concluded that since PD146176 is the inhibitor of 15-lipooxygenase enzyme, it might be protecting the stressed RPE cells by accumulating neuroprotective agents inside the cells. (B) Comparison of cytoprotective capacities of NPD1, C32:6 and C34:6 VLC-PUFA on oxidative stress-induced apoptosis in 15-LOX-1 cells. Shown here is the comparison of neuroprotection in a 15-LOX-1-deficient cell line under oxidative stress with 32:6 and 34:6 VLC-PUFA along with NPD1. 32:6 and 34:6 VLC-PUFA were able to induce neuroprotection (45% and 40% respectively), as compared to oxidative stress (90%) under this condition. (C) Concentration dependent cytoprotection by C32:6 and C34:6 VLC-PUFA in oxidative-stress induced ARPE-19 cells. A concentration (50-500 nM) kinetic of cytoprotection induced by VLC-PUFA 32:6 and 34:6 in RPE cell culture under OS was shown here. […] We decided to use 250 nM concentrations of 32:6 and 34:6 VLC-PUFA in subsequent experiments. […]

SIRT1 = SIRT1 abundance in ARPE-19 cells under oxidative stress; assay type: cell-based; conditions: ARPE-19 / human RPE cells confronted with OS
From the text: FIG. 10. (A) Effect of NPD1 and VLC-PUFA C32:6 and C34:6 in mediating upregulation of SIRT1 in ARPE-19 cells. (B) Quantification of SIRT1 upregulation by NPD1, C32:6 and C34:6. SIRT1 (Sirtuin1) belongs to a family of highly conserved proteins linked to caloric restriction beneficial outcomes and aging by regulating energy metabolism, genomic stability and stress resistance. SIRT1 is a potential therapeutic target in several diseases including cancer, diabetes, inflammatory disorders, and neurodegenerative diseases or disorders. Elovanoids induce cell survival involving the upregulation of the Bcl2 class of survival proteins and the downregulation of pro-apoptotic Bad and Bax under oxidative stress (OS) in RPE cells. […] As a consequence, remarkable cell survival takes place. This target of elovanoids might be relevant to counteract consequences of several diseases associated with SIRT1.
FIG. 10—(A) Effect of NPD1 and VLC-PUFA C32:6 and C34:6 in mediating upregulation of SIRT1 in ARPE-19 cells. (B) Quantification of SIRT1 upregulation by NPD1, C32:6 and C34:6. SIRT1 (Sirtuin1) belongs to a family of highly conserved proteins linked to caloric restriction beneficial outcomes and aging by regulating energy metabolism, genomic stability and stress resistance. […]

Compound	activity against OS relative to the related VLC-PUFA (FIG. 4) ([1]; as sodium salts or methyl esters)	neuroprotection (FIG. 5B) ([1]; 15-LOX-1-deficient cell line under oxidative stress, compared to oxidative stress (90%))	protection against cell death under oxidative stress conditions (FIG. 4B) ([1]; 15-LOX-D1 cells under oxidative stress)	effect on SIRT1 abundance (FIG. 10) (SIRT1)
CC/C=C\C[C@H](O)\C=C/C=C/C=C/[C@H](O)C/C=C\C/C=C\CCCCCCCCCCCCCCC(=O)O [ELV2, (16Z,19Z,22R,23E,25E,27Z,29S,31Z)-22,29-dihydroxytetratriaconta-16,19,23,25,27,31-hexaenoic acid]	more potent activity against OS than the related VLC-PUFA	–	–	–
CC/C=C\C/C=C\C/C=C\C/C=C\C/C=C\C/C=C\CCCCCCCCCCCCCCC(=O)O [C34:6]	–	40%	protect against cell death	mediate the upregulation of SIRT1
